Test results reported in patent US5763596A, “C-4' modified adenosine kinase inhibitors” (Metabasis Therapeutics, Inc., priority 1996, dated 1998).

Test system: male SA rats
Assay: rat skin lesion model, inhibition of neutrophil accumulation induced by carrageenan
Format: in vivo
Experimental: The dorsal skin of male SA rats was shaved and carrageenan (Type λ) or phosphate-buffered saline was injected intradermally. Three hours later, the injection sites were biopsied and weighed. Neutrophil content of the skin biopsies was measured as the quantity of myeloperoxidase (MPO) present in a tissue homogenate. The excised, weighed skin pieces were placed in 4 ml 0.5% mixed alkyl trimethylammonium bromide and homogenized at the highest speed for 15 seconds in a Polytron homogenizer (Brinkmann Instruments, Westbury, N.Y.). Lipids were extracted by adding 1 ml of dichloromethane to the homogenate, vortexing vigorously, and centrifuging at 1000 g, 5° C. for 15 min. Fifty μl of each supernatant was added in duplicate to a 96 well assay plate, along with dilutions of human myeloperoxidase standard. Potassium phosphate buffer (pH 6.1) containing 0.36 mg/ml of o-dianisidine dihydrochloride and 0.001% hydrogen peroxide was added (200 μl/well), and the absorbance at 450 nm was read after 5 min incubation at room temperature. The myeloperoxidase content of each skin piece was calculated from a standard curve constructed using least-square regression, and expressed as units of MPO/g of tissue.
AK inhibitors were administered orally using polyethylene glycol-400 as vehicle or intraperitoneally using dimethylsulfoxide as vehicle, at indicated time before skin lesion injection. For each experiment, the average of all values from saline-induced lesions was calculated. This baseline value was then subtracted from values obtained from carrageenan-induced lesions. Percent inhibition for AK inhibitors were calculated from these baseline-corrected values.

O[C@@H]1[C@H](O)CO[C@H]1n1cc(-c2ccccc2)c2c(Nc3ccc(F)cc3)ncnc21 [compound 28]
% inhibition of neutrophil accumulation (i.p., pretreatment 30 min, 3 mg/kg): 18% | % inhibition of neutrophil accumulation (i.p., pretreatment 30 min, 10 mg/kg): 62% | % inhibition of neutrophil accumulation (i.p., pretreatment 30 min, 30 mg/kg): 79% | % inhibition of neutrophil accumulation (i.p., pretreatment 60 min, 10 mg/kg): 49% | % inhibition of neutrophil accumulation (i.p., pretreatment 120 min, 10 mg/kg): 60% | % inhibition of neutrophil accumulation (i.p., pretreatment 240 min, 10 mg/kg): 28% | % inhibition of neutrophil accumulation (p.o., pretreatment 60 min, 10 mg/kg): 28% | % inhibition of neutrophil accumulation (p.o., pretreatment 60 min, 20 mg/kg): 40% | % inhibition of neutrophil accumulation (p.o., pretreatment 120 min, 20 mg/kg): 84% | % inhibition of neutrophil accumulation (p.o., pretreatment 240 min, 20 mg/kg): 77% | % inhibition of neutrophil accumulation (p.o., pretreatment 420 min, 20 mg/kg): 20%
